We go through three compounds from patent US12351580B2, “NLRP3 modulators” (Innate Tumor Immunity, Inc., priority 2017, dated 2025).

Some results are limits rather than exact numbers.

For test [1], the target named is T1, TLR7 (Homo sapiens, UniProt Q9NYK1).
T1 construct: host or cells: HEK-Blue cells (human HEK) co-expressing TLR7 and an NF-kB/AP1-inducible SEAP reporter
T1 sequence (Q9NYK1 27-1049): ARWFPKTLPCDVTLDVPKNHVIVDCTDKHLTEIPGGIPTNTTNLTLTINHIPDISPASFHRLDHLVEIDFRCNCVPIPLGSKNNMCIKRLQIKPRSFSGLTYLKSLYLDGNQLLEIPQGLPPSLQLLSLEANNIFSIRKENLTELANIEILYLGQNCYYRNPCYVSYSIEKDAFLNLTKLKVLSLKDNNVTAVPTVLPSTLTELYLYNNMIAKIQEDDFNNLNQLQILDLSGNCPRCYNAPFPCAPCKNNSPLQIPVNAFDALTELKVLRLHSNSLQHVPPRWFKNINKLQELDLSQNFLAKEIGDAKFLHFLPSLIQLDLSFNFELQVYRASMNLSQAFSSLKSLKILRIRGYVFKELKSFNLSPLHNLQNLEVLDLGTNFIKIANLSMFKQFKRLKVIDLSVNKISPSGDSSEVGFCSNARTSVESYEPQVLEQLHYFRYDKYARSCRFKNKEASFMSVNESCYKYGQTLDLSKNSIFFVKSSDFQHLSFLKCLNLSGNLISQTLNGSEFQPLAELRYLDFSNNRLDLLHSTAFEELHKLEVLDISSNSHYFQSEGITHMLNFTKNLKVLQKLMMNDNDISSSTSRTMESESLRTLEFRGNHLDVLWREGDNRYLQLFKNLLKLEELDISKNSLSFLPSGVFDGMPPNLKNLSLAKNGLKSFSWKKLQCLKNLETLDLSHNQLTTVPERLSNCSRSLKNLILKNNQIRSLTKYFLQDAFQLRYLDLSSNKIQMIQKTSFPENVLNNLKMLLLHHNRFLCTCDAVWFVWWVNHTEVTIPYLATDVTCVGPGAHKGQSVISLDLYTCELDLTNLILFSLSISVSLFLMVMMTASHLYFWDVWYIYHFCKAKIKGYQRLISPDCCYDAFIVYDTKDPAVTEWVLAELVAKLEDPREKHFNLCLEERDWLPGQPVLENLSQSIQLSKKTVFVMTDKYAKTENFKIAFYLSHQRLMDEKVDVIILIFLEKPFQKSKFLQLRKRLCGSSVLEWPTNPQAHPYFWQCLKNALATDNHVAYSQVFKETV
Kind of test: In vitro human TLR7 binding reporter assay (HEK-Blue, NF-kB/AP1-inducible SEAP). Type of test: cell-based. The conditions noted are these: activity range symbols. In outline:
(§1)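 Reporter cells are plated at 15,000 per well and rested 24 h. Next day, test compounds or DMSO are dispensed, followed by 18 h incubation at 37 °C, 5% CO2.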
(Reporter assays use an easily measured gene product as a stand-in for the process of interest.)

For test [2], the target named is T2, TLR8 (Homo sapiens, UniProt Q9NR97).
T2 construct: host or cells: HEK-Blue cells (human HEK) co-expressing TLR8 and an NF-kB/AP1-inducible SEAP reporter
T2 sequence (Q9NR97 27-1041): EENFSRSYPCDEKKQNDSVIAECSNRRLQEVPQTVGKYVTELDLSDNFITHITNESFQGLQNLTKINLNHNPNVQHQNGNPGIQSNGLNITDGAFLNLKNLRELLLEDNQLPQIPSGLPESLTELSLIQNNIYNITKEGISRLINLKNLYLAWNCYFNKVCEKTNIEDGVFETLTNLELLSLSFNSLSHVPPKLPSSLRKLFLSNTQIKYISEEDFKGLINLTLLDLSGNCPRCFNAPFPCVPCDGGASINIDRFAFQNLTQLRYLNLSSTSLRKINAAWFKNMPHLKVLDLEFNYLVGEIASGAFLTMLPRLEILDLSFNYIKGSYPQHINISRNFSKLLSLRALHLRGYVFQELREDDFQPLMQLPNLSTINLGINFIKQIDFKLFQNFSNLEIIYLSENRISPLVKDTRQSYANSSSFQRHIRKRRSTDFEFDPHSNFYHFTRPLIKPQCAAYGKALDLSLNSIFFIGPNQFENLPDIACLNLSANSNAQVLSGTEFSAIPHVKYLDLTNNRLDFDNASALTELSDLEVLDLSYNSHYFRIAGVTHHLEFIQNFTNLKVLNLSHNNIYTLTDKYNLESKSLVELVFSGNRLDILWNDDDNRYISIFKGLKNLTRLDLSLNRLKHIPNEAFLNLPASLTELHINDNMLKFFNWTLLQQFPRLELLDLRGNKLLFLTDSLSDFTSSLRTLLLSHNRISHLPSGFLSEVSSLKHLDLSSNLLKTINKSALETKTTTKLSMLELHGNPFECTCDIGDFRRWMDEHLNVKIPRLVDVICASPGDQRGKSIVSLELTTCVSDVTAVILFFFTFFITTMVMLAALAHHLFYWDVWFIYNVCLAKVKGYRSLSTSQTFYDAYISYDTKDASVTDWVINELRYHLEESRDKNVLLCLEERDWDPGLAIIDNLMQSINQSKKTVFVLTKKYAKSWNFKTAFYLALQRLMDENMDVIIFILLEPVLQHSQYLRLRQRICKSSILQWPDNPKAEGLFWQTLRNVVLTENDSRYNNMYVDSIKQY
Kind of test: In vitro human TLR8 binding reporter assay (HEK-Blue, NF-kB/AP1-inducible SEAP). Type of test: cell-based. In outline:
as §1

For the compound `CCN(Cc1nc2c(N)nc3cc(-c4cc[nH]n4)ccc3c2[nH]1)C(=O)c1ccncc1` [Compound 450, N-{[4-amino-7-(1H-pyrazol-3-yl)-1H-imidazo[4,5-c]quinolin-2-yl]methyl}-N-ethylpyridine-4-carboxamide], the half-maximal effective concentration (EC50) in test [1] and in test [2] (activity range symbols) was greater than 100 µM throughout.

On to `CCN(Cc1nc2c(N)nc3cc(-c4cc[nH]n4)ccc3c2[nH]1)C(=O)c1cn(C)c2ccccc12` [Compound 451, N-{[4-amino-7-(1H-pyrazol-3-yl)-1H-imidazo[4,5-c]quinolin-2-yl]methyl}-N-ethyl-1-methyl-1H-indole-3-carboxamide], for which the EC50 in test [1] is greater than 100 µM; in test [2] (activity range symbols), 20 to 100 µM.

As to `CCN(Cc1nc2c(N)nc3cc(-c4cc[nH]n4)ccc3c2[nH]1)C(=O)c1ccc(Cl)cc1` [Compound 452, N-{[4-amino-7-(1H-pyrazol-3-yl)-1H-imidazo[4,5-c]quinolin-2-yl]methyl}-4-chloro-N-ethylbenzamide], the concentration giving a half-maximal response (EC50) in test [1] is greater than 100 µM; in test [2] (numeric bounds) it was greater than 62 µM.

Usually EC50 stands for the concentration that produces a half-maximal response. Read a low EC50 as a more potent agent.
